Measured values taken from PubChem BioAssay AID256 (DTP/NCI, 2004).
Where “and” joins values, the source holds several entries; their conditions need not be identical. Equal entries are not always repeated. Toxic doses and inconclusive results are not listed.

System: CD2F1 mice, L1210 leukemia ip, survival T/C
Experiment: NCI In Vivo Anticancer Drug Screen. Data for tumor model L1210 Leukemia (intraperitoneal) in CD2F1 (CDF1) mice
Details: higher = longer survival
In short: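 Tumor-bearing mice (transplanted tumor) were split into treated and vehicle control groups, and the measured endpoint of each treated group was divided by that of its vehicle controls.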

[1] = endpoint: mean survival time, dose: 75.0 mg/kg/injection, schedule: Q01DX001 (ip), vehicle: saline
[2] = endpoint: mean survival time, dose: 150.0 mg/kg/injection, schedule: Q01DX001 (ip), vehicle: saline
[3] = endpoint: mean survival time, dose: 100.0 mg/kg/injection, schedule: Q01DX009 (ip), vehicle: saline with Tween-80
[4] = endpoint: mean survival time, dose: 200.0 mg/kg/injection, schedule: Q01DX009 (ip), vehicle: saline with Tween-80
[5] = endpoint: mean survival time, dose: 400.0 mg/kg/injection, schedule: Q01DX009 (ip), vehicle: saline with Tween-80
[6] = endpoint: mean survival time, dose: 50.0 mg/kg/injection, schedule: Q01DX009 (ip), vehicle: saline with Tween-80
[7] = endpoint: mean survival time, dose: 100.0 mg/kg/injection, schedule: Q04DX003 (ip), vehicle: saline with Tween-80
[8] = endpoint: mean survival time, dose: 200.0 mg/kg/injection, schedule: Q04DX003 (ip), vehicle: saline with Tween-80
[9] = endpoint: mean survival time, dose: 400.0 mg/kg/injection, schedule: Q04DX003 (ip), vehicle: saline with Tween-80
[10] = endpoint: mean survival time, dose: 25.0 mg/kg/injection, schedule: Q01DX009 (ip), vehicle: saline with Tween-80

O=C1C=CC(=O)C(Br)C1Br (stereo unspecified)
T/C (endpoint: mean survival time, dose: 37.5 mg/kg/injection, schedule: Q01DX009 (ip), vehicle: saline): 93 % of control
T/C (endpoint: mean survival time, dose: 37.5 mg/kg/injection, schedule: Q04DX003 (ip), vehicle: saline): 95 % of control
T/C [1]: 97 % of control
T/C (endpoint: mean survival time, dose: 75.0 mg/kg/injection, schedule: Q01DX009 (ip), vehicle: saline): 93 % of control
T/C (endpoint: mean survival time, dose: 75.0 mg/kg/injection, schedule: Q04DX003 (ip), vehicle: saline): 103 % of control
T/C [2]: 101 % of control
T/C (endpoint: mean survival time, dose: 150.0 mg/kg/injection, schedule: Q01DX009 (ip), vehicle: saline): 94 % of control
T/C (endpoint: mean survival time, dose: 150.0 mg/kg/injection, schedule: Q04DX003 (ip), vehicle: saline): 93 % of control

BrCc1cccc2cccnc12
T/C [3]: 88 % of control
T/C (endpoint: median survival time, dose: 50.0 mg/kg/injection, schedule: Q04DX003 (ip), vehicle: saline with Tween-80): 88 % of control
T/C (endpoint: median survival time, dose: 100.0 mg/kg/injection, schedule: Q04DX003 (ip), vehicle: saline with Tween-80): 88 % of control

CCC1CN2C(=N1)c1ccccc1-c1cc(Cl)ccc12 (stereo unspecified)
T/C (endpoint: mean survival time, dose: 10.0 mg/kg/injection, schedule: Q04DX003 (ip), vehicle: Klucel (hydroxypropylcellulose) (HPC)): 98 % of control
T/C (endpoint: mean survival time, dose: 20.0 mg/kg/injection, schedule: Q04DX003 (ip), vehicle: Klucel (hydroxypropylcellulose) (HPC)): 103 % of control

COC(=O)CC(=O)OCC1C=CCC=C1
T/C [3]: 98 % of control
T/C [4]: 98 % of control
T/C [5]: 100 % of control

Cc1ccc(S(=O)(=O)/C=C(\C=C/c2ccccc2)c2ccccc2)cc1
T/C [6]: 103 % of control
T/C [3]: 103 % of control
T/C [4]: 106 % of control

CC(=O)NCCN=Cc1ccccc1
T/C [3]: 97 % of control
T/C [7]: 95 % of control
T/C [4]: 95 % of control
T/C [8]: 95 % of control
T/C [5]: 97 % of control
T/C [9]: 97 % of control

CCCCCCCCCCCCNCCC(=O)O
T/C [1]: 93 % of control
T/C [2]: 93 % of control

COCS(=O)[O-].[C-]#[O+].[C-]#[O+].[Fe+6].[c-]1[c-][c-][cH-][c-]1
T/C (endpoint: mean survival time, dose: 12.5 mg/kg/injection, schedule: Q04DX002 (ip), vehicle: saline): 101 % of control
T/C (endpoint: mean survival time, dose: 25.0 mg/kg/injection, schedule: Q04DX002 (ip), vehicle: saline): 93 % of control
T/C (endpoint: mean survival time, dose: 50.0 mg/kg/injection, schedule: Q04DX002 (ip), vehicle: saline): 96 % of control

COC1OC2COC(c3ccccc3)OC2C(O)C1N (stereo unspecified)
T/C [10]: 96 % of control
T/C [6]: 100 % of control
T/C [3]: 103 % of control

O=P(O)(O)CP(=O)(O)O.[NH-]CC[NH-].[NH-]CC[NH-].[Pd+2].[Pd+2]
T/C (endpoint: mean survival time, dose: 3.13 mg/kg/injection, schedule: Q04DX003 (ip), vehicle: distilled water + Tween-80): 95 % of control
T/C (endpoint: mean survival time, dose: 6.25 mg/kg/injection, schedule: Q04DX003 (ip), vehicle: distilled water + Tween-80): 106 % of control
T/C (endpoint: mean survival time, dose: 12.5 mg/kg/injection, schedule: Q04DX003 (ip), vehicle: distilled water + Tween-80): 95 % of control
T/C (endpoint: mean survival time, dose: 25.0 mg/kg/injection, schedule: Q04DX003 (ip), vehicle: distilled water + Tween-80): 97 % of control
T/C (endpoint: mean survival time, dose: 50.0 mg/kg/injection, schedule: Q04DX003 (ip), vehicle: distilled water + Tween-80): 98 % of control
T/C (endpoint: mean survival time, dose: 100.0 mg/kg/injection, schedule: Q04DX003 (ip), vehicle: distilled water + Tween-80): 106 % of control

CCCCNC(=O)Oc1ccc(C(=O)OCC)cc1
T/C [10]: 100 % of control
T/C [6]: 97 % of control
T/C [3]: 97 % of control and 100 % of control
T/C [7]: 96 % of control
T/C [8]: 96 % of control
T/C [9]: 90 % of control

FC(F)(F)COP1(OCC(F)(F)F)=NP(OCC(F)(F)F)(OCC(F)(F)F)=NP(OCC(F)(F)F)(OCC(F)(F)F)=NP(OCC(F)(F)F)(OCC(F)(F)F)=N1
T/C (endpoint: mean survival time, dose: 50.0 mg/kg/injection, schedule: Q01DX009 (ip), vehicle: saline): 100 % of control
T/C (endpoint: mean survival time, dose: 100.0 mg/kg/injection, schedule: Q01DX009 (ip), vehicle: saline): 100 % of control
T/C (endpoint: mean survival time, dose: 100.0 mg/kg/injection, schedule: Q04DX003 (ip), vehicle: saline): 97 % of control
T/C (endpoint: mean survival time, dose: 200.0 mg/kg/injection, schedule: Q01DX009 (ip), vehicle: saline): 97 % of control
T/C (endpoint: mean survival time, dose: 200.0 mg/kg/injection, schedule: Q04DX003 (ip), vehicle: saline): 97 % of control
T/C (endpoint: mean survival time, dose: 400.0 mg/kg/injection, schedule: Q04DX003 (ip), vehicle: saline): 105 % of control

O=C(NCCS)Nc1ccccc1
T/C (endpoint: mean survival time, dose: 100.0 mg/kg/injection, schedule: Q01DX001 (ip), vehicle: saline with Tween-80): 102 % of control
T/C (endpoint: mean survival time, dose: 100.0 mg/kg/injection, schedule: Q04DX002 (ip), vehicle: saline with Tween-80): 104 % of control
T/C [7]: 94 % of control
T/C (endpoint: mean survival time, dose: 200.0 mg/kg/injection, schedule: Q01DX001 (ip), vehicle: saline with Tween-80): 98 % of control
T/C (endpoint: mean survival time, dose: 200.0 mg/kg/injection, schedule: Q04DX002 (ip), vehicle: saline with Tween-80): 96 % of control
T/C [8]: 86 % of control and 91 % of control
T/C (endpoint: mean survival time, dose: 400.0 mg/kg/injection, schedule: Q04DX002 (ip), vehicle: saline with Tween-80): 96 % of control
T/C [9]: 86 % of control and 92 % of control

Cc1ccc(N=NN(C)C)cc1
T/C (endpoint: mean survival time, dose: 18.75 mg/kg/injection, schedule: Q01DX009 (ip), vehicle: Klucel (hydroxypropylcellulose) (HPC)): 118 % of control
T/C (endpoint: mean survival time, dose: 75.0 mg/kg/injection, schedule: Q01DX009 (ip), vehicle: Klucel (hydroxypropylcellulose) (HPC)): 152 % of control

NC(=O)c1ncnc2c1ncn2C1OC(CO)C(O)C1O (stereo unspecified)
T/C (endpoint: mean survival time, dose: 12.5 mg/kg/injection, schedule: Q01DX005 (ip), vehicle: water): 104 % of control and 102 % of control
T/C (endpoint: mean survival time, dose: 25.0 mg/kg/injection, schedule: Q01DX005 (ip), vehicle: water): 104 % of control and 97 % of control
T/C (endpoint: mean survival time, dose: 50.0 mg/kg/injection, schedule: Q01DX005 (ip), vehicle: water): 106 % of control and 96 % of control
T/C (endpoint: mean survival time, dose: 100.0 mg/kg/injection, schedule: Q01DX005 (ip), vehicle: water): 110 % of control and 100 % of control
T/C (endpoint: mean survival time, dose: 200.0 mg/kg/injection, schedule: Q01DX005 (ip), vehicle: water): 110 % of control and 96 % of control

[Cl][Pt+2][Cl].[NH-]CC([NH-])c1ccc2oc3ccccc3c2c1 (stereo unspecified)
T/C (endpoint: median survival time, dose: 10.0 mg/kg/injection, schedule: Q04DX003 (ip), vehicle: saline): 100 % of control
T/C (endpoint: median survival time, dose: 20.0 mg/kg/injection, schedule: Q04DX003 (ip), vehicle: saline): 94 % of control
T/C (endpoint: median survival time, dose: 40.0 mg/kg/injection, schedule: Q04DX003 (ip), vehicle: saline): 105 % of control
T/C (endpoint: median survival time, dose: 80.0 mg/kg/injection, schedule: Q04DX003 (ip), vehicle: saline with Tween-80): 107 % of control
T/C (endpoint: median survival time, dose: 80.0 mg/kg/injection, schedule: Q04DX003 (ip), vehicle: saline): 110 % of control
